This is an account of results in US20080269213A1, “8-Hydroxyquinoline compounds and methods thereof” (Wyeth, priority 2006, published 2008).

“And” between values parts separate entries of the source, which are not always exact repeats. Equal values may be shown once.

The first test concerns the target T1, recombinant human Aggrecanase-2 Agg2-Phe628 (Homo sapiens, UniProt Q9UNA0).
T1 sequence (Q9UNA0 262-628 limits assumed): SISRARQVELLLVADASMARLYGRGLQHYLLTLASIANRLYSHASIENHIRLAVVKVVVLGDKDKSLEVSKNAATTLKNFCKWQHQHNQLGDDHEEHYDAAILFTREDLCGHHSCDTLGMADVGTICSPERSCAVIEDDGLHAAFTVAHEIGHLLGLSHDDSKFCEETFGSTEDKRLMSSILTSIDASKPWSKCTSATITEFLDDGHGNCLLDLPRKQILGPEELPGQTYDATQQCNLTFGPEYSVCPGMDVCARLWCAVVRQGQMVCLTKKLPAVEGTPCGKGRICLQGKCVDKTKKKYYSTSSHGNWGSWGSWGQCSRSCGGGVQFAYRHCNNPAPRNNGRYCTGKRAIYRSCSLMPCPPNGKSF
Put plainly: Aggrecanase 2 in vitro enzyme assay (Agg-2 FRET, quenched fluorescent peptide substrate). Also noted: purified recombinant human Aggrecanase-2 Agg2-Phe628 (MW=41,737); This is a truncated form of full-length human aggrecanase-2; made in house; host or cells: CHO cells. The conditions noted are these: @ 2500 nM. The class given is biochemical. The method, then:
A continuous assay was used in which the substrate was a synthetic peptide containing a fluorescent group (o-aminobenzyl, Abz), which was quenched by energy transfer to a 2,4-dinitrophenyl group (Dnp). The buffer used in this assay was 50 mM HEPES, pH 7.5, 100 mM NaCl, 5 mM CaCl2, 0.1% CHAPS, 5% glycerol. The source of enzyme was purified recombinant human Aggrecanase-2 Agg2-Phe628 (MW=41,737). This is a truncated form of full-length human aggrecanase-2 that was expressed in CHO cells and purified. The final concentration of Agg2-Phe628 was 0.5 μg/ml. […] It is a synthetic peptide that is designed after a portion of brevican, one of the naturally occurring substrates of Aggrecanase-2, of the sequence Abz-[…]-Dap(Dnp)-KK—NH2 (mass=1740). The concentration of this substrate stock was spectrophotometrically determined using the extinction coefficient at 354 nm of 18,172 M^−1cm^−1. […] The final concentration of substrate in the assay was 25 μM.
Test compounds (in duplicate) were serially diluted from 2 mM to 0.01 μM in 100% DMSO. The total reaction volume was 100 μl. The buffer and enzyme were added first followed by addition of 10× inhibitor from the dilution plate. Enzyme and buffer alone samples were included in order to obtain the maximal rate of substrate cleavage. […] Then substrate was added, mixed and the reaction monitored for 40 min at 30° C. in kinetic mode using λex: 340 nm and % λem: 420 (GeminiXS Molecular Devices).
One may read the inhibition as the percentage by which the read-out fell short of the control. `O=C(COc1ccccc1)NC(c1ccccc1O)c1cc(Cl)c2cccnc2c1O` (stereo not drawn) [N-[(5-chloro-8-hydroxyquinolin-7-yl)(2-hydroxyphenyl)methyl]-2-phenoxyacetamide]: the inhibition at […] stood at 62%.

Still in this test, the particulars now being: concentration not given.
`O=C(CCCc1ccccc1)NC(c1ccccc1Cl)c1cc(Cl)c2cccnc2c1O` (stereo not drawn) [N-[(5-chloro-8-hydroxyquinolin-7-yl)(2-chlorophenyl)methyl]-4-phenylbutanamide]: the “Agg-2 FRET Median PCT INHIB” value is recorded as 48%.

With `CC(C)(C)c1ccc(OCC(=O)NC(c2cccc(F)c2)c2cc(Cl)c3cccnc3c2O)cc1` (stereo not drawn) [2-(4-tert-butylphenoxy)-N-[(5-chloro-8-hydroxyquinolin-7-yl)(3-fluorophenyl)methyl]acetamide], the “Agg-2 FRET Median PCT INHIB” value is on record as 43%.

On to `CC(C)(C)c1ccc(NCC(=O)NC(c2ccccc2Cl)c2cc(Cl)c3cccnc3c2O)cc1` (stereo not drawn) [Example 20, N^2-(4-tert-butylphenyl)-N^1-[(5-chloro-8-hydroxyquinolin-7-yl)(2-chlorophenyl)methyl]glycinamide], for which the “Agg-2 FRET Median PCT INHIB” value is 54%.

Turning to `O=C(COc1ccccc1)NC(c1ccc(Cl)cc1Cl)c1cc(Cl)c2cccnc2c1O` (stereo not drawn) [N-[(5-chloro-8-hydroxyquinolin-7-yl)(2,4-dichlorophenyl)methyl]-2-phenoxyacetamide], the “Agg-2 FRET Median PCT INHIB” value is given as 57%.

On to `Cc1ccc(C(NC(=O)CCCc2ccccc2)c2cc(Cl)c3cccnc3c2O)cc1` (stereo not drawn) [N-[(5-chloro-8-hydroxyquinolin-7-yl)(4-methylphenyl)methyl]-4-phenylbutanamide], for which the “Agg-2 FRET Median PCT INHIB” value is listed as 41%.

For `O=C(CCc1ccccc1)NC(c1ccccc1)c1cc(Cl)c2cccnc2c1O` (stereo not drawn) [N-[(5-chloro-8-hydroxyquinolin-7-yl)(phenyl)methyl]-3-phenylpropanamide], the “Agg-2 FRET Median PCT INHIB” value amounted to 23%.

As to `Cc1ccccc1C(NC(=O)CCCc1ccccc1)c1cc(Cl)c2cccnc2c1O` (stereo not drawn) [N-[(5-chloro-8-hydroxyquinolin-7-yl)(2-methylphenyl)methyl]-4-phenylbutanamide], the “Agg-2 FRET Median PCT INHIB” value was found to be 49%.

Turning to `Cc1ccc(C(NC(=O)CNc2ccc(C(C)(C)C)cc2)c2cc(Cl)c3cccnc3c2O)cc1` (stereo not drawn) [Example 27, N^2-(4-tert-butylphenyl)-N^1-[(5-chloro-8-hydroxyquinolin-7-yl)(4-methylphenyl)methyl]glycinamide], the “Agg-2 FRET Median PCT INHIB” value is reported as 57%.

Regarding `COc1c(C(NC(=O)COc2ccccc2)c2ccccc2Cl)cc(Cl)c2cccnc12` (stereo not drawn) [N-[(5-chloro-8-methoxyquinolin-7-yl)(2-chlorophenyl)methyl]-2-phenoxyacetamide], the “Agg-2 FRET Median PCT INHIB” value is 32%.

The test is the same for the next values; noted with them: read-out: Agg2 IC50.
Usually IC50 stands for the concentration needed to halve the response being measured. Regarding `O=C(CCc1ccccc1)NC(c1ccccc1)c1cc(Cl)c2cccnc2c1O` (stereo not drawn) [N-[(5-chloro-8-hydroxyquinolin-7-yl)(phenyl)methyl]-3-phenylpropanamide], the IC50 was > 5000 nM.

Still in this test, the particulars now being: read-out: Agg-2 FRET Median IC50.
Turning to `CN(CC(=O)NC(c1cccc(F)c1)c1cc(Cl)c2cccnc2c1O)Cc1ccccc1` (stereo not drawn) [Example 55, N^2-benzyl-N^1-[(5-chloro-8-hydroxyquinolin-7-yl)(3-fluorophenyl)methyl]-N^2-methylglycinamide], the IC50 was found to be 1440 nM.

`Cc1ccccc1C(NC(=O)COc1ccccc1)c1cc(Br)c2cccnc2c1O` (stereo not drawn) [N-[(5-bromo-8-hydroxyquinolin-7-yl)(2-methylphenyl)methyl]-2-phenoxyacetamide]: the IC50 was determined as 1000 nM.

`Cc1ccccc1C(NC(=O)COc1ccccc1)c1cc(C)c2cccnc2c1O` (stereo not drawn) [N-[(8-hydroxy-5-methylquinolin-7-yl)(2-methylphenyl)methyl]-2-phenoxyacetamide]: the IC50 amounted to 3510 nM.

`CN(CC(=O)NC(c1ccccc1Cl)c1cc(Cl)c2cccnc2c1O)Cc1ccccc1` (stereo not drawn) [Example 52, N^2-benzyl-N^1-[(5-chloro-8-hydroxyquinolin-7-yl)(2-chlorophenyl)methyl]-N^2-methylglycinamide]: the IC50 worked out at 1310 nM.

With `CC(=O)NC(c1ccccc1)c1cc(Cl)c2cccnc2c1O` (stereo not drawn) [N-[(5-chloro-8-hydroxyquinolin-7-yl)(phenyl)methyl]acetamide], the IC50 came out at 19700 nM.

As for `O=C(CNc1cccnc1)NC(c1cccc([N+](=O)[O-])c1)c1cc(Cl)c2cccnc2c1O` (stereo not drawn) [Example 28, N^1-[(5-chloro-8-hydroxyquinolin-7-yl)(3-nitrophenyl)methyl]-N^2-pyridin-3-ylglycinamide], the IC50 turned out to be 1560 nM.

Turning to `COc1ccc(C(NC(=O)COc2ccccc2)c2cc(Cl)c3cccnc3c2O)cc1` (stereo not drawn) [N-[(5-chloro-8-hydroxyquinolin-7-yl)(4-methoxyphenyl)methyl]-2-phenoxyacetamide], the IC50 was 1120 nM and 1000 nM.

For the compound `O=C(CNc1cccnc1)NC(c1ccccc1Cl)c1cc(Cl)c2cccnc2c1O` (stereo not drawn) [Example 18, N^1-[(5-chloro-8-hydroxyquinolin-7-yl)(2-chlorophenyl)methyl]-N^2-pyridin-3-ylglycinamide], the IC50 is 16900 nM.

Regarding `Cc1ccc(C(NC(=O)CNc2cccnc2)c2cc(Cl)c3cccnc3c2O)cc1` (stereo not drawn) [Example 22, N^1-[(5-chloro-8-hydroxyquinolin-7-yl)(4-methylphenyl)methyl]-N^2-pyridin-3-ylglycinamide], the IC50 came out at 9790 nM.

For `O=C(COc1ccccc1)NC(c1ccc(Cl)cc1)c1ccc2cccnc2c1O` (stereo not drawn) [N-[(4-chlorophenyl)(8-hydroxyquinolin-7-yl)methyl]-2-phenoxyacetamide], the IC50 was 3380 nM.

On to `O=C(COc1ccccc1)NC(c1cc([N+](=O)[O-])ccc1Cl)c1cc(Cl)c2cccnc2c1O` (stereo not drawn) [N-[(5-chloro-8-hydroxyquinolin-7-yl)(2-chloro-5-nitrophenyl)methyl]-2-phenoxyacetamide], for which the IC50 came out at 523 nM.

Consider `COc1cccc(C(NC(=O)COc2ccccc2)c2cc(Cl)c3cccnc3c2O)c1` (stereo not drawn) [N-[(5-chloro-8-hydroxyquinolin-7-yl)(3-methoxyphenyl)methyl]-2-phenoxyacetamide], for which the IC50 stood at 1840 nM.

As to `O=C(COc1ccccc1)NC(c1ccc(F)c(Cl)c1)c1cc(Cl)c2cccnc2c1O` (stereo not drawn) [N-[(3-chloro-4-fluorophenyl)(5-chloro-8-hydroxyquinolin-7-yl)methyl]-2-phenoxyacetamide], the IC50 was 1040 nM.

In the case of `CC(=O)Nc1ccc(NCC(=O)NC(c2cccc([N+](=O)[O-])c2)c2cc(Cl)c3cccnc3c2O)cc1` (stereo not drawn) [Example 31, N^2-[4-(acetylamino)phenyl]-N^1-[(5-chloro-8-hydroxyquinolin-7-yl)(3-nitrophenyl)methyl]glycinamide], the IC50 amounted to 2770 nM.

As to `CC(=O)c1ccc(NCC(=O)NC(c2ccc(C)cc2)c2cc(Cl)c3cccnc3c2O)cc1` (stereo not drawn) [Example 24, N^2-(4-acetylphenyl)-N^1-[(5-chloro-8-hydroxyquinolin-7-yl)(4-methylphenyl)methyl]glycinamide], the IC50 was 1120 nM.

With `COc1cc(OC)cc(C(NC(=O)COc2ccccc2)c2cc(Cl)c3cccnc3c2O)c1` (stereo not drawn) [N-[(5-chloro-8-hydroxyquinolin-7-yl)(3,5-dimethoxyphenyl)methyl]-2-phenoxyacetamide], the IC50 came to 1090 nM.

As to `COc1cc(C(NC(=O)COc2ccccc2)c2cc(Cl)c3cccnc3c2O)ccc1O` (stereo not drawn) [N-[(5-chloro-8-hydroxyquinolin-7-yl)(4-hydroxy-3-methoxyphenyl)methyl]-2-phenoxyacetamide], the IC50 was found to be 7300 nM.

As to `O=C(CCCc1ccccc1)NC(c1cccc([N+](=O)[O-])c1)c1cc(Cl)c2cccnc2c1O` (stereo not drawn) [N-[(5-chloro-8-hydroxyquinolin-7-yl)(3-nitrophenyl)methyl]-4-phenylbutanamide], the IC50 turned out to be 1150 nM.

As to `COc1ccc(C(NC(=O)COc2ccccc2)c2ccc3cccnc3c2O)cc1` (stereo not drawn) [N-[(8-hydroxyquinolin-7-yl)(4-methoxyphenyl)methyl]-2-phenoxyacetamide], the IC50 was 4410 nM.

Consider `Cc1cc(C(NC(=O)COc2ccccc2)c2cccc([N+](=O)[O-])c2)c(O)c2ncccc12` (stereo not drawn) [Example 46, N-[(8-hydroxy-5-methylquinolin-7-yl)(3-nitrophenyl)methyl]-2-phenoxyacetamide], for which the IC50 was determined as 1320 nM.

Turning to `O=C(COCc1ccccc1)NC(c1cccc(F)c1)c1cc(Cl)c2cccnc2c1O` (stereo not drawn) [2-(benzyloxy)-N-[(5-chloro-8-hydroxyquinolin-7-yl)(3-fluorophenyl)methyl]acetamide], the IC50 was determined as 828 nM.

The test is the same for the next values; noted with them: ~600-1800 nM.
In the case of `COc1cc(OC)cc(OCC(=O)NC(c2ccccc2)c2cc(Cl)c3cccnc3c2O)c1` (stereo not drawn) [N-[(5-chloro-8-hydroxyquinolin-7-yl)(phenyl)methyl]-2-(3,5-dimethoxyphenoxy)acetamide], the “Agg2 % inh” value worked out at 50% inh ~600-1800.
